Experimental data published in patent US10000765B2, “Gene encoding cytochrome P450, and use thereof” (NATIONAL INSTITUTE OF AGROBIOLOGICAL SCIENCES, priority 2011, dated 2018).

Key:
[1] = test system: Rice (Nipponbare) calluses transformed with pCAMBIA1390-KasCYP72A31; test: Redifferentiation and rooting test, rice callus transformed with pCAMBIA1390-KasCYP72A31; format: cell-based, Oryza sativa
Experimental: After selective culturing, the callus was transplanted onto a rice redifferentiation medium RE-III (containing 50 ppm hygromycin or 0.25 μM bispyribac sodium), cultured at 27 degree C. under 16L/8D conditions, and led to redifferentiate. The callus was plated after 2 weeks. At additional about 2 to 3 weeks, a redifferentiated, transformed rice (T0) was obtained. Once a differentiated shoot and/or root had appeared, the rice was transplanted onto a hormone-free (HF) medium (containing 50 ppm hygromycin or 0.25 μM bispyribac sodium).
According to Example 5, an HptII::35Spro::Kasalath CYP72A31::Tnos vector plasmid (pCAMBIA1390-KasCYP72A31, a kasCYP72A31 overexpression construct) or, as controls, an HptII::35Spro::sGFP::Tnos vector plasmid (pCAMBIA1302-sGFP, an sGFP overexpression construct) or an OsALS (W548L/S627I)::OsAct-1pro::sGFP::Tnos vector plasmid (pSTARA-sGFP, a BS-resistant construct) was introduced into a rice variety (a cultivar: Nipponbare) by using an Agrobacterium method. According to a schedule designated in FIG. 12A), transformed calluses were selected with 50 ppm hygromycin. […] Of all the calluses, 43 calluses were transplanted onto a redifferentiation medium containing 0.25 μM BS.
Rice (Nipponbare) calluses transformed with a pCAMBIA1390-KasCYP72A31 construct in Example 8 were obtained by 50 ppm hygromycin selection. When these calluses were transplanted onto a redifferentiation medium containing 50 ppm hygromycin, shoots and roots were differentiated from the callus at a redifferentiation efficiency of 95% (38/40 calluses). Subsequently, 25 redifferentiation calluses transformed with a pCAMBIA1390-KasCYP72A31 construct were transplanted onto a hormone-free medium containing 1 μM BS. As a result, 7 calluses had extending roots (a root extension rate of 28%. FIG. 15).

[2] = test system: Rice (Nipponbare) calluses transformed with pCAMBIA1390-KasCYP72A31; test: Selection of drug-resistant callus in N6D medium, pCAMBIA1390-KasCYP72A31; format: cell-based, Oryza sativa; details: 4 weeks
Experimental: Rice transformed with pCAMBIA1390-KasCYP72A31 was used to examine whether a Kasalath-derived CYP72A31 gene was able to be used as a selection marker for transformation with BS as a selection reagent. According to Example 5, rice (Nipponbare) was transformed with pCAMBIA1390-KasCYP72A31 or pSTARA-sGFP by using an Agrobacterium method.
Rice (Nipponbare) calluses transformed with pCAMBIA1390-KasCYP72A31 were cultured for 4 weeks in an N6D medium containing 0.1 or 0.25 μM BS or an N6D medium containing 50 ppm hygromycin to select drug-resistant calluses. Also, rice calluses transformed with pSTARA-sGFP were selected in a similar manner in an N6D medium containing 0.25 μM BS.

[3] = test system: Nipponbare calluses overexpressing Kasalath-derived or Nipponbare-derived CYP72A32 or CYP72A33; test: Callus growth test on BS-containing medium, CYP72A32 or CYP72A33 overexpression constructs; format: cell-based, Oryza sativa
Source text: According to Example 5, an HptII::35Spro::Kasalath CYP72A32::Tnos vector plasmid (pCAMBIA1390-KasCYP72A32, a kasCYP72A32 overexpression construct), an HptII::35 Spro::Kasalath CYP72A33::Tnos vector plasmid (pCAMBIA1390-KasCYP72A33, a kasCYP72A33 overexpression construct), an HptII::35Spro::Nipponbare CYP72A32::Tnos vector plasmid (pCAMBIA1390-nbCYP72A32, an nbCYP72A32 overexpression construct), or an HptII::35Spro::Nipponbare CYP72A33::Tnos vector plasmid (pCAMBIA1390-nbCYP72A33, an nbCYP72A33 overexpression construct) was introduced into a rice variety (a cultivar: Nipponbare) by using an Agrobacterium method. Transformed calluses selected with 50 ppm hygromycin were isolated, and transplanted onto a bispyribac-sodium (BS)-containing medium to examine callus growth.

[4] = test system: Arabidopsis thaliana K31-4-2 and K31-6-5; test: Growth test in BS-containing medium, Arabidopsis transformed with Kasalath-derived CYP72A31; format: in vivo; details: day 10 from onset of cultivation, compared to NT
Source text: In this Example, Agrobacterium as prepared in Example 4 was used to introduce HptII::35Spro::Kasalath CYP72A31::Tnos vector plasmid (pCAMBIA1390-KasCYP72A31), HptII::35Spro::Kasalath CYP72A32::Tnos vector plasmid (pCAMBIA1390-KasCYP72A32), or HptII::35Spro::Kasalath CYP72A33::Tnos vector plasmid (pCAMBIA1390-KasCYP72A33) into Arabidopsis thaliana (ecotype: Col-0) by using a floral-dip method. The floral-dip method followed a standard method. […] K31-4-2 and K31-6-5 were selected as fixed lines derived from pCAMBIA1390-KasCYP72A31; K32-1-1, K32-3-1, and K32-5-1 were selected as fixed lines derived from pCAMBIA1390-KasCYP72A32; and K33-1-3 and K33-2-4 were selected as fixed lines derived from pCAMBIA1390-KasCYP72A33. Their seeds were seeded in a medium containing each concentration of BS, and cultivated for 10 days. FIGS. 16A and 16B illustrate the results.
Next, 15 seeds for each of non-transformed Arabidopsis thaliana (NT, which is denoted by “Col-0” in FIGS. 17A-17C) and transformed plant bodies (K31-4-2 which is denoted by “K31oe-4-2” in FIGS. 17A-17C and K31-6-5 which is denoted by “K31oe-6-5” in FIGS. 17A-17C) were cultivated on a medium containing each concentration of BS. […]

Question: What does the source list for `COc1cc(OC)nc(Oc2cccc(Oc3nc(OC)cc(OC)n3)c2C(=O)O)n1` [BS, bispyribac sodium]?
Answer: Calluses with extending roots of all redifferentiation calluses ([1]; hormone-free medium containing 0.25 μM BS): 73%; Root extension rate ([1]; hormone-free medium containing 1 μM BS): 28%; Redifferentiation efficiency ([1]; redifferentiation medium containing 0.25 μM BS): 91%; Selection efficiency (ratio of the resulting transformed calluses/all calluses) ([2]; N6D medium containing 0.1 μM BS): 71%; Selection efficiency (ratio of the resulting transformed calluses/all calluses) ([2]; N6D medium containing 0.25 μM BS): 61%; Callus growth [3]: not grown; BS sensitivity (germinated seeds, emerging of true leaves, fresh weight of above-ground part) [4]: significantly lower BS sensitivity compared to NT
